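Five concentrations, 48 hours, 96-well plates. At the GI50, growth is halved.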 Calls of active or inactive are those of the source. No stated cut-off is given here; in the data, active = GI50 up to about 1.1 µM and inactive = higher.
Columns and labels:
Experiment in all cases: NCI anticancer screen, dose series, 48 h
[1] = system: 786-0
[2] = system: A498
[3] = system: CAKI-1
[4] = system: CCRF-CEM
[5] = system: COLO 205
[6] = system: DLD-1
[7] = system: DMS-114
[8] = system: DMS-273
[9] = system: HCC 2998
[10] = system: HCT-116
[11] = system: HL-60
[12] = system: HOP-62
[13] = system: HOP-92
[14] = system: IGROV-1
[15] = system: K562
[16] = system: LOX IMVI
[17] = system: LXFL 529
[18] = system: M14
[19] = system: M19-MEL
[20] = system: MOLT-4
[21] = system: Malme-3M
[22] = system: NCI-H226
[23] = system: NCI-H23
[24] = system: NCI-H460
[25] = system: NCI-H522
[26] = system: OVCAR-4
[27] = system: RPMI-8226
[28] = system: RXF 631
[29] = system: SF-268
[30] = system: SF-539
[31] = system: SK-MEL-28
[32] = system: SK-MEL-2
[33] = system: SK-OV-3
[34] = system: SN12C
[35] = system: SNB-75
[36] = system: SNB-78
[37] = system: SR
[38] = system: UACC-62
[39] = system: UO-31
[40] = system: XF498
[41] = system: A549
[42] = system: ACHN
[43] = system: EKVX
[44] = system: HCT-15
[45] = system: HOP-18
[46] = system: HT-29
[47] = system: KM-20L2
[48] = system: KM12
[49] = system: OVCAR-3
[50] = system: OVCAR-5
[51] = system: OVCAR-8
[52] = system: RXF 393
[53] = system: SF-295
[54] = system: SK-MEL-5
[55] = system: SNB-19
[56] = system: SW-620
[57] = system: TK-10
[58] = system: U-251
[59] = system: UACC-257

## CN1CCCN2CCN(C)CCCN(CC1)CC2
[1]
  GI50: > 100 µM (inactive)
[2]
  GI50: > 100 µM (inactive)
[3]
  GI50: > 100 µM (inactive)
[4]
  GI50: > 100 µM (inactive)
[5]
  GI50: > 100 µM (inactive)
[6]
  GI50: > 100 µM (inactive)
[7]
  GI50: > 100 µM (inactive)
[8]
  GI50: > 100 µM (inactive)
[9]
  GI50: > 100 µM (inactive)
[10]
  GI50: > 100 µM (inactive)
[11]
  GI50: > 100 µM (inactive)
[12]
  GI50: > 100 µM (inactive)
[13]
  GI50: > 100 µM (inactive)
[14]
  GI50: > 100 µM (inactive)
[15]
  GI50: > 100 µM (inactive)
[16]
  GI50: > 100 µM (inactive)
[17]
  GI50: > 100 µM (inactive)
[18]
  GI50: > 100 µM (inactive)
[19]
  GI50: > 100 µM (inactive)
[20]
  GI50: > 100 µM (inactive)
[21]
  GI50: > 100 µM (inactive)
[22]
  GI50: > 100 µM (inactive)
[23]
  GI50: > 100 µM (inactive)
[24]
  GI50: > 100 µM (inactive)
[25]
  GI50: > 100 µM (inactive)
[26]
  GI50: > 100 µM (inactive)
[27]
  GI50: > 100 µM (inactive)
[28]
  GI50: > 100 µM (inactive)
[29]
  GI50: > 100 µM (inactive)
[30]
  GI50: > 100 µM (inactive)
[31]
  GI50: > 100 µM (inactive)
[32]
  GI50: > 100 µM (inactive)
[33]
  GI50: > 100 µM (inactive)
[34]
  GI50: > 100 µM (inactive)
[35]
  GI50: > 100 µM (inactive)
[36]
  GI50: > 100 µM (inactive)
[37]
  GI50: > 100 µM (inactive)
[38]
  GI50: > 100 µM (inactive)
[39]
  GI50: > 100 µM (inactive)
[40]
  GI50: > 100 µM (inactive)

## Cc1ccc(NC(=O)CC/C(CC(=O)c2ccc(F)cc2)=N\NC(=O)C(=O)NN)cc1C
[1]
  GI50: > 100 µM (inactive)
[2]
  GI50: > 100 µM (inactive)
[41]
  GI50: > 100 µM (inactive)
[42]
  GI50: > 100 µM (inactive)
[3]
  GI50: > 100 µM (inactive)
[4]
  GI50: > 100 µM (inactive)
[5]
  GI50: > 100 µM (inactive)
[6]
  GI50: > 100 µM (inactive)
[7]
  GI50: > 100 µM (inactive)
[8]
  GI50: > 100 µM (inactive)
[43]
  GI50: > 100 µM (inactive)
[9]
  GI50: > 100 µM (inactive)
[10]
  GI50: > 100 µM (inactive)
[44]
  GI50: > 100 µM
[11]
  GI50: 41.5 µM (inactive)
[45]
  GI50: > 100 µM (inactive)
[12]
  GI50: > 100 µM (inactive)
[13]
  GI50: > 100 µM (inactive)
[46]
  GI50: > 100 µM (inactive)
[14]
  GI50: > 100 µM (inactive)
[15]
  GI50: > 100 µM (inactive)
[47]
  GI50: > 100 µM (inactive)
[48]
  GI50: > 100 µM (inactive)
[16]
  GI50: > 100 µM (inactive)
[17]
  GI50: > 100 µM (inactive)
[18]
  GI50: > 100 µM (inactive)
[19]
  GI50: > 100 µM (inactive)
[21]
  GI50: > 100 µM (inactive)
[22]
  GI50: > 100 µM (inactive)
[23]
  GI50: > 100 µM (inactive)
[24]
  GI50: > 100 µM (inactive)
[25]
  GI50: > 100 µM (inactive)
[49]
  GI50: > 100 µM (inactive)
[26]
  GI50: > 100 µM (inactive)
[50]
  GI50: > 100 µM (inactive)
[51]
  GI50: > 100 µM (inactive)
[52]
  GI50: > 100 µM (inactive)
[28]
  GI50: > 100 µM (inactive)
[29]
  GI50: > 100 µM (inactive)
[53]
  GI50: > 100 µM (inactive)
[30]
  GI50: > 100 µM (inactive)
[31]
  GI50: > 100 µM (inactive)
[32]
  GI50: > 100 µM (inactive)
[54]
  GI50: > 100 µM (inactive)
[33]
  GI50: > 100 µM (inactive)
[34]
  GI50: > 100 µM (inactive)
[55]
  GI50: > 100 µM (inactive)
[35]
  GI50: > 100 µM (inactive)
[36]
  GI50: > 100 µM (inactive)
[56]
  GI50: > 100 µM (inactive)
[57]
  GI50: > 100 µM (inactive)
[58]
  GI50: > 100 µM (inactive)
[59]
  GI50: > 100 µM (inactive)
[38]
  GI50: > 100 µM (inactive)
[39]
  GI50: > 100 µM (inactive)

— ChEMBL document CHEMBL1201862, “PubChem BioAssay data set” (2004)
